# Experimental data reported in patent US10787444B2, “Compounds for the modulation of myc activity” (Syros Pharmaceuticals, Inc., priority 2015, dated 2020).
# Read-outs that look alike come from different tables or passages of the source.
# Experiments:
# [1] = biological target: T1, c-Myc/Max/Ebox DNA (Homo sapiens, UniProt P01106); assay: c-Myc/Max/Ebox DNA AlphaScreen Assay; assay type: binding; settings: calculated IC50 class
# T1 construct: his6 (cleaved yes)
# In short: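 Compounds were preincubated with free c-Myc (20 nM), biotinylated single-Ebox DNA (10 nM) and Ni acceptor beads before his6-Max (5 nM) and streptavidin donor beads were added. Buffer was 50 mM HEPES pH 8.0, 150 mM NaCl, BSA, Tween20, glycogen and DTT, with DMSO ≤2%. After 2 h incubation, AlphaScreen signal was read at 680 nm excitation and 520–620 nm emission.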
# [2] = system: human small lung cancer cell line H2171; assay: Cell Viability Assay (ATPlite); assay type: cell-based; settings: H2171 cells, three days, ATPlite, calculated IC50 class, read-out: H2171 Activity
# In short: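 H2171 cells were plated at 20,000 cells/mL and dosed immediately by pin transfer with a 10-point dose series in DMSO. After three days at 37° C, ATPlite luminescence served as the viability readout.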
# [3] = Homo sapiens, NCI-H2171, 72 h, Table 3, compounds of FIG. 2
# [4] = Homo sapiens, NCI-H2171, 72 h, Table 2, compounds of FIG. 1
# T1 sequence (P01106 whole entry): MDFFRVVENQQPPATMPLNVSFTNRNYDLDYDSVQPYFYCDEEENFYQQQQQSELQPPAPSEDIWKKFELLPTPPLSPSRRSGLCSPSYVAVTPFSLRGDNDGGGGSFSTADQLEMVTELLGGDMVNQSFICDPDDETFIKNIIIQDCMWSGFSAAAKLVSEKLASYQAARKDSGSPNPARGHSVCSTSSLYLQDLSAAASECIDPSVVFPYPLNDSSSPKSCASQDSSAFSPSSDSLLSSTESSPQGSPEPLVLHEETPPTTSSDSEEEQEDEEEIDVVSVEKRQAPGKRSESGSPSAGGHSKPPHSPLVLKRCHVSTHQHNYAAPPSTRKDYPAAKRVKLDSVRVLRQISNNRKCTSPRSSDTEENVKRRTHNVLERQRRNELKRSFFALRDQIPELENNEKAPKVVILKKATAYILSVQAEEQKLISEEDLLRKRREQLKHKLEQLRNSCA
"IC50 ([1]; Table 3, compounds of FIG. 2) [nM]","IC50 [2, 3] [nM]","IC50 ([1]; Table 2, compounds of FIG. 1) [nM]","IC50 [2, 4] [nM]","IC50 ([2]; Table 2, compounds of FIG. 1) [nM]",SMILES
300 to 1000,< 300,–,–,–,"CC(=O)Nc1sc2c(c1-c1nc3c(C)cccc3s1)CCNC2 [Compound 225, N-(3-(4-methylbenzo[d]thiazol-2-yl)-4,5,6,7-tetrahydrothieno[2,3-c]pyridin-2-yl)acetamide]"
> 10000,< 300,–,–,–,"CC(=O)Nc1sc2c(c1-c1nc3ccccc3s1)CCC(NCc1ccncc1)C2 (stereo not shown) [Compound 226, N-(3-(benzo[d]thiazol-2-yl)-6-((pyridin-4-ylmethyl)amino)-4,5,6,7-tetrahydrobenzo[b]thiophen-2-yl)acetamide]"
> 10000,< 300,–,–,–,"CC(=O)Nc1sc2c(c1-c1nc3ccccc3s1)CCC(NC1CCNCC1)C2 (stereo not shown) [Compound 227, N-(3-(benzo[d]thiazol-2-yl)-6-(piperidin-4-ylamino)-4,5,6,7-tetrahydrobenzo[b]thiophen-2-yl)acetamide]"
300 to 1000,< 300,–,–,–,"COC(=O)c1ccc2sc(-c3c(NC(C)=O)sc4c3CCNC4)nc2c1 [Compound 229, Methyl 2-(2-acetamido-4,5,6,7-tetrahydrothieno[2,3-c]pyridin-3-yl)benzo[d]thiazole-5-carboxylate]"
1000 to 10000,> 10000,–,–,–,"CC(=O)Nc1sc2c(c1-c1nc3cc(N(C)C)ccc3s1)CCNC2 [Compound 230, N-(3-(5-(dimethylamino)benzo[d]thiazol-2-yl)-4,5,6,7-tetrahydrothieno[2,3-c]pyridin-2-yl)acetamide]"
1000 to 10000,< 300,–,–,–,"CC(=O)Nc1sc2c(c1-c1nc3ccccc3s1)CCC(NC1CCOCC1)C2 (stereo not shown) [Compound 231, N-(3-(benzo[d]thiazol-2-yl)-6-((tetrahydro-2H-pyran-4-yl)amino)-4,5,6,7-tetrahydrobenzo[b]thiophen-2-yl)acetamide]"
> 10000,> 10000,–,–,–,"CC(=O)N(C)c1sc2c(c1-c1nc3ccccc3s1)CCNC2 [Compound 232, N-(3-(benzo[d]thiazol-2-yl)-4,5,6,7-tetrahydrothieno[2,3-c]pyridin-2-yl)-N-methylacetamide]"
300 to 1000,300 to 1000,–,–,–,"CC(=O)Nc1sc2c(c1-c1nc3cc4c(cc3s1)OCO4)CCN(C(C)C)C2 [Compound 236, N-(3-([1,3]Dioxolo[4′,5′:4,5]benzo[1,2-d]thiazol-6-yl)-6-isopropyl-4,5,6,7-tetrahydrothieno[2,3-c]pyridin-2-yl)acetamide]"
1000 to 10000,300 to 1000,–,–,–,"CC(=O)Nc1sc2c(c1-c1nc3cc4c(cc3s1)OCO4)CCNC2 [Compound 237, N-(3-([1,3]Dioxolo[4′,5′:4,5]benzo[1,2-d]thiazol-6-yl)-4,5,6,7-tetrahydrothieno[2,3-c]pyridin-2-yl)acetamide]"
–,–,1000 to 10000,1000 to 10000,–,"CCC(C)NCCC(=O)N(C)c1sc2c(c1-c1nc3ccccc3s1)CCNC2 (stereo not shown) [Compound 301, N-(3-(benzo[d]thiazol-2-yl)-4,5,6,7-tetrahydrothieno[2,3-c]pyridin-2-yl)-3-(sec-butylamino)-N-methylpropanamide]"
–,–,> 10000,< 300,–,"COCCN(CCOC)CCC(=O)Nc1sc2c(c1-c1nc3ccccc3s1)CCNC2 [Compound 309, N-(3-(benzo[d]thiazol-2-yl)-4,5,6,7-tetrahydrothieno[2,3-c]pyridin-2-yl)-3-(bis(2-methoxyethyl)amino)propanamide]"
–,–,< 300,< 300,–,"O=C(CCNCCO)Nc1sc2c(c1-c1nc3ccccc3s1)CCNC2 [Compound 310, N-(3-(Benzo[d]thiazol-2-yl)-4,5,6,7-tetrahydrothieno[2,3-c]pyridin-2-yl)-3-((2-hydroxyethyl)amino)propanamide]"
–,–,< 300,< 300,–,"COCCNCCC(=O)Nc1sc2c(c1-c1nc3cc(C)ccc3s1)CCNC2 [Compound 314, 3-((2-Methoxyethyl)amino)-N-(3-(5-methylbenzo[d]thiazol-2-yl)-4,5,6,7-tetrahydrothieno[2,3-c]pyridin-2-yl)propanamide]"
–,–,300 to 1000,–,< 300,"COCCNCCC(=O)Nc1sc2c(c1-c1nc3ccccc3s1)CC(C)NC2C (stereo not shown) [Compound 315, N-(3-(Benzo[d]thiazol-2-yl)-5,7-dimethyl-4,5,6,7-tetrahydrothieno[2,3-c]pyridin-2-yl)-3-((2-methoxyethyl)amino)propanamide]"
–,–,300 to 1000,< 300,–,"COCCNCCC(=O)Nc1sc2c(c1-c1nc3ccc(F)cc3s1)CCNC2 [Compound 318, N-(3-(6-Fluorobenzo[d]thiazol-2-yl)-4,5,6,7-tetrahydrothieno[2,3-c]pyridin-2-yl)-3-((2-methoxyethyl)amino)propanamide]"
–,–,> 10000,300 to 1000,–,"CCC(C)N(CCC(=O)Nc1sc2c(c1-c1nc3ccccc3s1)CCN(CCNC(=O)C(F)(F)F)C2)C(C)=O (stereo not shown) [Compound 319, N-(3-(Benzo[d]thiazol-2-yl)-6-(2-(2,2,2-trifluoroacetamido)ethyl)-4,5,6,7-tetrahydrothieno[2,3-c]pyridin-2-yl)-3-(N-(sec-butyl)acetamido)propanamide]"
–,–,300 to 1000,< 300,–,"CC(C)NCCC(=O)Nc1sc2c(c1-c1nc3cc(C(=O)O)ccc3s1)CCNC2 [Compound 320, 2-(2-(3-(Isopropylamino)propanamido)-4,5,6,7-tetrahydrothieno[2,3-c]pyridin-3-yl)benzo[d]thiazole-5-carboxylic acid]"
–,–,300 to 1000,< 300,–,"C=Cc1ccc2sc(-c3c(NC(=O)CCNC(C)C)sc4c3CCNC4)nc2c1 [Compound 321, 3-(Isopropylamino)-N-(3-(5-vinylbenzo[d]thiazol-2-yl)-4,5,6,7-tetrahydrothieno[2,3-c]pyridin-2-yl)propanamide]"
–,–,300 to 1000,< 300,–,"CC(C)NCCC(=O)Nc1sc2c(c1-c1nc3cc(C(=O)N(C)C)ccc3s1)CCNC2 [Compound 322, 2-(2-(3-(Isopropylamino)propanamido)-4,5,6,7-tetrahydrothieno[2,3-c]pyridin-3-yl)-N,N-dimethylbenzo[d]thiazole-5-carboxamide]"
–,–,< 300,< 300,–,"COCCNC(=O)c1ccc2sc(-c3c(NC(=O)CCNC(C)C)sc4c3CCNC4)nc2c1 [Compound 323, 2-(2-(3-(Isopropylamino)propanamido)-4,5,6,7-tetrahydrothieno[2,3-c]pyridin-3-yl)-N-(2-methoxyethyl)benzo[d]thiazole-5-carboxamide]"
–,–,300 to 1000,1000 to 10000,–,"CC(C)NCCC(=O)Nc1sc2c(c1-c1nc3cc(C(=O)N4CCN(C)CC4)ccc3s1)CCNC2 [Compound 324, 3-(Isopropylamino)-N-(3-(5-(4-methylpiperazine-1-carbonyl)benzo[d]thiazol-2-yl)-4,5,6,7-tetrahydrothieno[2,3-c]pyridin-2-yl)propanamide]"
–,–,1000 to 10000,< 300,–,"CC(C)NCCC(=O)Nc1sc2c(c1-c1nc3cc(C(=O)Nc4ccccc4)ccc3s1)CCNC2 [Compound 505, 2-(2-(3-(Isopropylamino)propanamido)-4,5,6,7-tetrahydrothieno[2,3-c]pyridin-3-yl)-N-phenylbenzo[d]thiazole-5-carboxamide]"
–,–,300 to 1000,–,1000 to 10000,"COCCNCCC(=O)Nc1sc2c(c1-c1nc3ccccc3s1)CC(C)NC2C (stereo not shown) [Compound 506, N-(3-(Benzo[d]thiazol-2-yl)-5,7-dimethyl-4,5,6,7-tetrahydrothieno[2,3-c]pyridin-2-yl)-3-((2-methoxyethyl)amino)propanamide]"
